As a reminder, the IC50 is the concentration needed to halve the response being measured.

Structures are written as SMILES. Read-outs that look alike come from different tables or passages of the source.

The source of these data is patent US12662465B2, “EGFR inhibitors” (Blueprint Medicines Corporation, priority 2021, dated 2026).

The target of test [1] is T1, EGFR L858R (Homo sapiens, UniProt P00533, L858R).
T1 construct: purchased SignalChem E10-122BG
The test can be described thus: Biochemical EGFR inhibition assay (Caliper mobility shift), EGFR L858R. The settings on record: read-out: Enz EGFR_L858R IC50.

For test [2], the target named is T2, EGFR (d746-750) (Homo sapiens, UniProt P00533, DEL746-750).
T2 construct: purchased SignalChem E10-122JG
The test can be described thus: Biochemical EGFR inhibition assay (Caliper mobility shift), EGFR (d746-750). The settings on record: read-out: Enz EGFR_Exon19-del746-750 IC50.

Test [3] has as its target intracellular phosphorylation of EGFR (Tyr1068) in PC-9 cells (Ex19Del) (Homo sapiens, UniProt P00533, DEL746-750). Nature of the test: PC-9 pEGFR AlphaLISA assay. Type of test: cell-based. The settings on record: 4 hours compound incubation, read-out: Ext pEGFR_PC-9 Ex19Del IC50. (Alpha assays give light when donor and acceptor beads are brought close together.)
[4] abbreviates: 1.0 mM ATP or ATP Km, room temperature (25° C.).

Sequence of intracellular phosphorylation of EGFR (Tyr1068) in PC-9 cells (Ex19Del) (P00533 with tags, fused parts or gaps DEL746-750): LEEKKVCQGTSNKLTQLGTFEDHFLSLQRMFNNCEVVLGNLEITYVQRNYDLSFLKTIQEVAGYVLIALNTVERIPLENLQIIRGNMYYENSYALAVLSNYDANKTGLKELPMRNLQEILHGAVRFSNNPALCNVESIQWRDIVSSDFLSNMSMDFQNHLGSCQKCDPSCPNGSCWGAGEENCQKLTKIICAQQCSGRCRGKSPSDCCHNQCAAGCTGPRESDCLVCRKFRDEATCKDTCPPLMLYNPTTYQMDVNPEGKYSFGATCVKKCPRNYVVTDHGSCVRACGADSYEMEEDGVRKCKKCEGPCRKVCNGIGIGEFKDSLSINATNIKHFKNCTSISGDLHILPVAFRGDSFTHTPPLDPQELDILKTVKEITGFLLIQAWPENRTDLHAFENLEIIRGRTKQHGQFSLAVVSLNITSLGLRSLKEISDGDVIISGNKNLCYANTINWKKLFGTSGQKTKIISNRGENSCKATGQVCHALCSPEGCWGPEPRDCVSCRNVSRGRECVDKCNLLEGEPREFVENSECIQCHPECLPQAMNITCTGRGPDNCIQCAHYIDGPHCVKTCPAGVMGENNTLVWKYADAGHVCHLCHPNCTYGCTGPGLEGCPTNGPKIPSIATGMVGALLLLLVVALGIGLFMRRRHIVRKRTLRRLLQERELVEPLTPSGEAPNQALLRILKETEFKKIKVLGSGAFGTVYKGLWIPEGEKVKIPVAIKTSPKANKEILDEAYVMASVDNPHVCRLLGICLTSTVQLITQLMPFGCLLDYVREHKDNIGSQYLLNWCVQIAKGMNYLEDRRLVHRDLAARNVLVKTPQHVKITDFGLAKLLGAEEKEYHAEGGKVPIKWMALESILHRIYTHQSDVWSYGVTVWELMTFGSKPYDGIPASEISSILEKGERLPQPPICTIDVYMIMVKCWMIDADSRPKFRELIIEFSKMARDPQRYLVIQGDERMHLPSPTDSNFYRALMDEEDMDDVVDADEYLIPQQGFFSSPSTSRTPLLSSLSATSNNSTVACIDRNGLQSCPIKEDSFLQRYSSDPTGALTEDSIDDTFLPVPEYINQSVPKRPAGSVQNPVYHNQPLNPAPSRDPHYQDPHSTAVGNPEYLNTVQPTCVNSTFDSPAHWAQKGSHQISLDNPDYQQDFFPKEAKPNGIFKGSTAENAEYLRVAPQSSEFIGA
T1 sequence (P00533 25-1210 L858R): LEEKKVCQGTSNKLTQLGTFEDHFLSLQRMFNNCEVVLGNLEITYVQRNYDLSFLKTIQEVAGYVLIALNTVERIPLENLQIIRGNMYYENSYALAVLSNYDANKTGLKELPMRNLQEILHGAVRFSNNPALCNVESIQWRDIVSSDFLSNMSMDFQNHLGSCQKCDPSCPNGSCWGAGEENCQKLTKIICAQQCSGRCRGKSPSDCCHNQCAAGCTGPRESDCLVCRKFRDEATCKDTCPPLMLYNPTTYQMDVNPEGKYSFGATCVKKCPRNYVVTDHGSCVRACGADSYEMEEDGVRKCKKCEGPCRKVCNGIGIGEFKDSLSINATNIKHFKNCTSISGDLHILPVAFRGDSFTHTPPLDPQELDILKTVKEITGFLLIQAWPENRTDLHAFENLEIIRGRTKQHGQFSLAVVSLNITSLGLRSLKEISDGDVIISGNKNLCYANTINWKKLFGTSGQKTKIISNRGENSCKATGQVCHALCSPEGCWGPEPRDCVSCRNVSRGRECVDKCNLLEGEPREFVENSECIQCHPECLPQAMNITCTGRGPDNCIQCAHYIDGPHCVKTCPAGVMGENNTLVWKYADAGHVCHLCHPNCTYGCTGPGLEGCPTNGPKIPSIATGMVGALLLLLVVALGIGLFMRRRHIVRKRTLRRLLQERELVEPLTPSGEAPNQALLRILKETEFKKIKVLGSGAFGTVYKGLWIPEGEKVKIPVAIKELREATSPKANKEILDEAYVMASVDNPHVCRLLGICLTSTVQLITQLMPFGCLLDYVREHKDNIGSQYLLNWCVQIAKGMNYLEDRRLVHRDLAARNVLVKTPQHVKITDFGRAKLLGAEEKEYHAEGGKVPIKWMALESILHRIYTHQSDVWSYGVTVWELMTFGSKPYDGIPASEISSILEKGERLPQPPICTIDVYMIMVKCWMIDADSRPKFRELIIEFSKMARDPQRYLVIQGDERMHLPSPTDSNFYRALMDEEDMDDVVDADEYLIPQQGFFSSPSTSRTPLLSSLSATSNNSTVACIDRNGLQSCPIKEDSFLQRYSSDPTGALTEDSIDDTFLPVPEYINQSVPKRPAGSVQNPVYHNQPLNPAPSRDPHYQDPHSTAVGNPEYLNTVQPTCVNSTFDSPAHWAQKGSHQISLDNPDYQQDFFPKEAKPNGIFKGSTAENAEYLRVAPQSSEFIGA
T2 sequence (P00533 with tags, fused parts or gaps DEL746-750 limits assumed): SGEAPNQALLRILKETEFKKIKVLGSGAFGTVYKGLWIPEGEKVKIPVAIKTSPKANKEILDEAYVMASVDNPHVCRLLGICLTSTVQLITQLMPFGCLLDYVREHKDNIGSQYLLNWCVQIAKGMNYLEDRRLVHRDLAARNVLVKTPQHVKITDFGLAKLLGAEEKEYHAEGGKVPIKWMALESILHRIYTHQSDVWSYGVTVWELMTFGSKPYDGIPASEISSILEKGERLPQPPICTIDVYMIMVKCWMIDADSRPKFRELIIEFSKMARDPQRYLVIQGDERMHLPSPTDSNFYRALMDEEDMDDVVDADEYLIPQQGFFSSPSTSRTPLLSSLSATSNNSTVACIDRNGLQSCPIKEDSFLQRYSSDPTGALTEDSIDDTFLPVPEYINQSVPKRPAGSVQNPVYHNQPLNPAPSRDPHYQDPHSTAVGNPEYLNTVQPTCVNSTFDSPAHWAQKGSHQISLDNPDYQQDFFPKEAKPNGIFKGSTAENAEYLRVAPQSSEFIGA

Consider `C[C@H](CN(C)C)Oc1cc(N2CC3CC(C2)O3)cc2ncnc(Nc3ccc4ncccc4c3F)c12` [Example 70, 7-(6-oxa-3-azabicyclo[3.1.1]heptan-3-yl)-5-(((R)-1-(dimethylamino)propan-2-yl)oxy)-N-(5-fluoroquinolin-6-yl)quinazolin-4-amine], for which the concentration for half-maximal inhibition (IC50) in test [1] is 10.1 to 50 nM; in test [2], under 10 nM; in test [3] it was at most 10 nM.

For the compound `CC[C@H](CN(C)C)Oc1cc(-c2cnn(C)c2)cc2ncnc(Nc3ccc4ncccc4c3F)c12` [Example 24, (R)-5-((1-(dimethylamino)butan-2-yl)oxy)-N-(5-fluoroquinolin-6-yl)-7-(1-methyl-1H-pyrazol-4-yl)quinazolin-4-amine], the half-inhibitory concentration (IC50) was under 10 nM in test [1], under 10 nM in test [2] and at most 10 nM in test [3].

Consider `C[C@H](CN(C)C)Oc1cc(N(C)C)cc2ncnc(Nc3ccc4ncccc4c3F)c12` [Example 153, (R)-5-((1-(dimethylamino)propan-2-yl)oxy)-N4-(5-fluoroquinolin-6-yl)-N7,N7-dimethylquinazoline-4,7-diamine], for which the figures for the IC50 in test [1], in test [2] and in test [3] were 10.1 to 50 nM, under 10 nM and at most 10 nM, respectively.

For the compound `CN(C)C1(COc2cc(-c3cnn(C)c3)cc3ncnc(Nc4ccc5ncccc5c4F)c23)COC1` [Example 21, 5-((3-(dimethylamino)oxetan-3-yl)methoxy)-N-(5-fluoroquinolin-6-yl)-7-(1-methyl-1H-pyrazol-4-yl)quinazolin-4-amine], the IC50 in test [1] was 10.1 to 50 nM; in test [2], under 10 nM; in test [3], 10.1 to 50 nM.

As for `C[C@H](CN(C)C1CC1)Oc1cc(-c2cnn(C)c2)cc2ncnc(Nc3ccc4ncccc4c3F)c12` [Example 114, (R)-5-((1-(cyclopropyl(methyl)amino)propan-2-yl)oxy)-N-(5-fluoroquinolin-6-yl)-7-(1-methyl-1H-pyrazol-4-yl)quinazolin-4-amine], the figures for the IC50 in test [1], in test [2] and in test [3] were under 10 nM, under 10 nM and at most 10 nM, respectively.

`C[C@@H](CN(C)C)Oc1cc(-c2cnn(C)c2)cc2ncnc(Nc3ccc4ncccc4c3)c12` (single isomer, unassigned) [Example 44, (S)-5-((1-(dimethylamino)propan-2-yl)oxy)-7-(1-methyl-1H-pyrazol-4-yl)-N-(quinolin-6-yl)quinazolin-4-amine or (R)-5-((1-(dimethylamino)propan-2-yl)oxy)-7-(1-methyl-1H-pyrazol-4-yl)-N-(quinolin-6-yl)quinazolin-4-amine]: the 50% inhibitory concentration (IC50) is under 10 nM in test [1] (setting [4]), under 10 nM in test [2] (setting [4]) and at most 10 nM in test [3].

Consider `Cc1ccc2c(F)c(Nc3ncnc4cc(-c5cnn(C)c5)cc(O[C@H](C)CN(C)C)c34)ccc2n1` [Example 107, (R)-5-((1-(dimethylamino)propan-2-yl)oxy)-N-(5-fluoro-2-methylquinolin-6-yl)-7-(1-methyl-1H-pyrazol-4-yl)quinazolin-4-amine], for which the half-maximal inhibitory concentration (IC50) in test [1] was 10.1 to 50 nM; in test [2], under 10 nM; in test [3], 10.1 to 50 nM.

Regarding `CC(CO)n1cc(-c2cc(O[C@H](C)C3COC3)c3c(Nc4ccc5ncccc5c4F)ncnc3c2)cn1` (mixture of isomers) [Example 119, (R)-2-(4-(4-((5-fluoroquinolin-6-yl)amino)-5-((R)-1-(oxetan-3-yl)ethoxy)quinazolin-7-yl)-1H-pyrazol-1-yl)propan-1-ol and (S)-2-(4-(4-((5-fluoroquinolin-6-yl)amino)-5-((R)-1-(oxetan-3-yl)ethoxy)quinazolin-7-yl)-1H-pyrazol-1-yl)propan-1-ol], the results for the concentration for half-maximal inhibition (IC50) in test [1], in test [2] and in test [3] were under 10 nM, under 10 nM and at most 10 nM, respectively.

On to `C[C@H](CN(C)C)Oc1cc(N2CCC3(COC3)C2)cc2ncnc(Nc3ccc4ncccc4c3F)c12` [Example 74, (R)-5-((1-(dimethylamino)propan-2-yl)oxy)-N-(5-fluoroquinolin-6-yl)-7-(2-oxa-6-azaspiro[3.4]octan-6-yl)quinazolin-4-amine], for which the values for the 50% inhibitory concentration (IC50) in test [1], in test [2] and in test [3] were 10.1 to 50 nM, under 10 nM and 10.1 to 50 nM, respectively.

On to `C[C@H](CN(C)C)Oc1cc(-c2cnn(C)c2)cc2ncnc(Nc3ccc4nccnc4c3)c12` [Example 103, (R)-5-((1-(dimethylamino)propan-2-yl)oxy)-7-(1-methyl-1H-pyrazol-4-yl)-N-(quinoxalin-6-yl)quinazolin-4-amine], for which the results for the concentration for half-maximal inhibition (IC50) in test [1], in test [2] and in test [3] were 10.1 to 50 nM, under 10 nM and 10.1 to 50 nM, respectively.

For the compound `COC1CCN(c2cc(O[C@H](C)C3COC3)c3c(Nc4ccc5ncccc5c4F)ncnc3c2)C1` (mixture of isomers) [Example 84, N-(5-fluoroquinolin-6-yl)-7-((R)-3-methoxypyrrolidin-1-yl)-5-((R)-1-(oxetan-3-yl)ethoxy)quinazolin-4-amine and N-(5-fluoroquinolin-6-yl)-7-((S)-3-methoxypyrrolidin-1-yl)-5-((R)-1-(oxetan-3-yl)ethoxy)quinazolin-4-amine], the half-maximal inhibitory concentration (IC50) in test [1] was under 10 nM; in test [2], under 10 nM; in test [3], at most 10 nM.

Consider `C[C@H](Oc1cc(-c2cnn(C)c2)cc2ncnc(Nc3ccc4ncccc4c3F)c12)C1CCOCC1` [Example 20, (S)—N-(5-fluoroquinolin-6-yl)-7-(1-methyl-1H-pyrazol-4-yl)-5-(1-(tetrahydro-2H-pyran-4-yl)ethoxy)quinazolin-4-amine. or (R)—N-(5-fluoroquinolin-6-yl)-7-(1-methyl-1H-pyrazol-4-yl)-5-(1-(tetrahydro-2H-pyran-4-yl)ethoxy)quinazolin-4-amine], for which the half-inhibitory concentration (IC50) in test [1] (setting [4]) is under 10 nM; in test [2] (setting [4]) it was under 10 nM; in test [3] it was at most 10 nM.

As to `C[C@H](CN(C)C)Oc1cc(-c2cnn(C)c2)cc2ncnc(Nc3ccc4ncc(O)cc4c3F)c12` [Example 116, (R)-6-((5-((1-(dimethylamino)propan-2-yl)oxy)-7-(1-methyl-1H-pyrazol-4-yl)quinazolin-4-yl)amino)-5-fluoroquinolin-3-ol], the concentration for half-maximal inhibition (IC50) in test [1] was under 10 nM; in test [2] it was under 10 nM; in test [3] it was over 50.1 nM.

Regarding `CN1CCC[C@H](Oc2cc(-c3cnn(C)c3)cc3ncnc(Nc4ccc5ncccc5c4F)c23)C1` [Example 35, (S)—N-(5-fluoroquinolin-6-yl)-7-(1-methyl-1H-pyrazol-4-yl)-5-((1-methylpiperidin-3-yl)oxy)quinazolin-4-amine], the IC50 in test [1] is under 10 nM; in test [2], under 10 nM; in test [3], at most 10 nM.

As to `C[C@H](CN(C)C)Oc1cc(N2CCOC(C(F)F)C2)cc2ncnc(Nc3ccc4ncccc4c3F)c12` (mixture of isomers) [Example 98, 7—((S)-2-(difluoromethyl)morpholino)-5-(((R)-1-(dimethylamino)propan-2-yl)oxy)-N-(5-fluoroquinolin-6-yl) and 7-((R)-2-(difluoromethyl)morpholino)-5-(((R)-1-(dimethylamino)propan-2-yl)oxy)-N-(5-fluoroquinolin-6-yl)quinazolin-4-amine], the results for the IC50 in test [1], in test [2] and in test [3] were 10.1 to 50 nM, under 10 nM and at most 10 nM, respectively.

Turning to `C[C@H](Oc1cc(-c2cnn(C)c2)cc2ncnc(Nc3ccc4ncccc4c3F)c12)C(=O)N(C)C` (single isomer, unassigned) [Example 137, (S)-2-((4-((5-fluoroquinolin-6-yl)amino)-7-(1-methyl-1H-pyrazol-4-yl)quinazolin-5-yl)oxy)-N,N-dimethylpropanamide or (R)-2-((4-((5-fluoroquinolin-6-yl)amino)-7-(1-methyl-1H-pyrazol-4-yl)quinazolin-5-yl)oxy)-N,N-dimethylpropanamide], the concentration for half-maximal inhibition (IC50) in test [1] (setting [4]) was under 10 nM; in test [2] (setting [4]), under 10 nM; in test [3], at most 10 nM.

Regarding `C[C@H](Oc1cc(-c2cnn(C)c2)cc2ncnc(Nc3ccc4ncccc4c3F)c12)[C@@H]1COCCN1` [Example 157, N-(5-fluoroquinolin-6-yl)-7-(1-methyl-1H-pyrazol-4-yl)-5-((S)-1-((S)-morpholin-3-yl)ethoxy)quinazolin-4-amine], the IC50 in test [1], in test [2] and in test [3] was over 50.1 nM throughout.

As to `C[C@H](CO)Oc1cc(-c2cnn(C)c2)cc2ncnc(Nc3ccc4ncccc4c3F)c12` [Example 135, (R)-2-((4-((5-fluoroquinolin-6-yl)amino)-7-(1-methyl-1H-pyrazol-4-yl)quinazolin-5-yl)oxy)propan-1-ol], the IC50 in test [1] is under 10 nM; in test [2], under 10 nM; in test [3], at most 10 nM.

With `CN1CC[C@H](Oc2cc(-c3cnn(C)c3)cc3ncnc(Nc4ccc5ncccc5c4F)c23)C1=O` [Example 25, (S)-3-((4-((5-fluoroquinolin-6-yl)amino)-7-(1-methyl-1H-pyrazol-4-yl)quinazolin-5-yl)oxy)-1-methylpyrrolidin-2-one], the IC50 in test [1] is under 10 nM; in test [2], under 10 nM; in test [3] it was 10.1 to 50 nM.

`C[C@H](CN(C)C)Oc1cc(N2CC3(COC3)C2)cc2ncnc(Nc3c(F)cc4ncccc4c3F)c12` [Example 39, (R)—N-(5,7-difluoroquinolin-6-yl)-5-((1-(dimethylamino)propan-2-yl)oxy)-7-(2-oxa-6-azaspiro[3.3]heptan-6-yl)quinazolin-4-amine]: the IC50 is under 10 nM in test [1], under 10 nM in test [2] and at most 10 nM in test [3].

As for `CN(C)CCOc1cc(-c2cnn(C)c2)cc2ncnc(Nc3ccc4ncccc4c3F)c12` [Example 34, 5-(2-(dimethylamino)ethoxy)-N-(5-fluoroquinolin-6-yl)-7-(1-methyl-1H-pyrazol-4-yl)quinazolin-4-amine], the half-inhibitory concentration (IC50) is 10.1 to 50 nM in test [1], under 10 nM in test [2] and 10.1 to 50 nM in test [3].
